Laboratory results reported in PMC10063562, “Metabolic profiling, antioxidant, and enzyme inhibition potential of Iris pseudacorus L. from Egypt and Japan: A comparative study” (Scientific Reports, 2023).
Read-outs that look alike come from different tables or passages of the source.

Tests used:
α-glucosidase = settings: cited from earlier work
protein glycation = test system: protein glycation; parameters: method as in PMID 23270944; settings: at concentration of 3 µg/mL; ref [83]; cited from earlier work
pancreatic lipase [1] = target: T1, pancreatic lipase (Sus scrofa, UniProt P00591); experiment: pancreatic lipase enzyme inhibition assay (4MUFO substrate); type: biochemical, porcine; settings: mean ± SD, n=3
T1 construct: purchased Sigma Aldrich, Japan
T1 sequence (P00591 1-450): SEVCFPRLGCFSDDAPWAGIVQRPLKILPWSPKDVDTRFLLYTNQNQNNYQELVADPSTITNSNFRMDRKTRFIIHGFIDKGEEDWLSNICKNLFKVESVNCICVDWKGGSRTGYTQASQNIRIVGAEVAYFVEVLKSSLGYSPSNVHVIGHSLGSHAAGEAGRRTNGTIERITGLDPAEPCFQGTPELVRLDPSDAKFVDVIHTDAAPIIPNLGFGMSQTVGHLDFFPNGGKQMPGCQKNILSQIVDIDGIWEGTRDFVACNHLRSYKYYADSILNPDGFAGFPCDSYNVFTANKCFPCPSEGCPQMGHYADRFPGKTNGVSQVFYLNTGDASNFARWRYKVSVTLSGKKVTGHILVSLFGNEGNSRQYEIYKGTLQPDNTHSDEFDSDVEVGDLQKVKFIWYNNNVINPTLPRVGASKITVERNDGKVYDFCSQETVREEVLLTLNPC
Text: 2, 2-Diphenyl-1-picrylhydrazyl (DPPH), pancreatic lipase enzyme from porcine animal, tyrosinase enzyme from mushroom plant and α-glucosidase enzyme from Saccharomyces cerevisiae fungi were purchased from the Sigma Aldrich, Japan. Arbutin and aluminum chloride (III) were obtained from Nacalai Tesque, Japan. Cetilistat was purchased from Combi-Blocks, United States of America. Acarbose and Trolox were obtained from Wako Pure Chemical Industries, Japan. Methanol was purchased from Al-Nasr Pharmaceutical Company, Egypt.
The anti-hyperlipidemic potential of yellow flag extracts was conducted by Bitou et al. method with minor alterations. In an ELISA microplate reader, pancreatic lipase solution (50 μL at pH 7.4) in phosphate buffer (100 μg/mL, 0.2 M) was added together with 50 μL of I. pseudacorus extract at a concentration ranging from 1.56 to 100 μg/mL. After 10 min of incubation at 25 °C. […] The quantity of 4-methylumbelliferone liberated by the lipase enzyme was measured fluorometrically using a spectrophotometer at 355 nm excitation wavelength and 460 nm emission wavelength. […] The percentage of lipase inhibition was calculated using the following equation: [1- As/Ac ]*100], where As and Ac symbolize I. pseudacorus extract and […] absorbances. […]
DPPH and enzyme inhibitory assays were carried out in triplicates, and the values were expressed as mean ± standard deviation. […]

[2] = parameters: method as in PMID 26799817; settings: compared to trolox; ref [80]; cited from earlier work
[3] = cited from earlier work; for antioxidant activity IC50: compared to propyl gallate, ref [78]; for free radical scavenging activity IC50: compared to trolox, ref [79]
rats = settings: pre-administration in rats (5 and 10 mg/kg); ref [91]; cited from earlier work
[4] = test system: Chinese hamster lung fibroblast (V79-4) cells; parameters: method as in PMID 16102749; settings: V79-4 cells exposed to hydrogen peroxide; ref [77]; cited from earlier work
[5] = DPPH radical scavenging assay; settings: mean ± SD, n=3
Procedure: The antioxidant activity of the yellow flag extracts was determined using DPPH scavenging assay in accordance with Shimamura et al. with minimal adjustments. The reaction mixture in 96 well culture plate contained. […] After 20 min of incubation of the reaction mixture at 25 °C. The degree of bleaching of the violet tint of DPPH depends on the ability of I. pseudacorus extracts for hydrogen/electron donation and was measured spectrophotometrically at 520 nm of wavelength. Noteworthy, trolox (an artificial anti-oxidant agent) was used as a positive control. The percentage of antioxidant capacity of the yellow flag extracts equals to [ Ac-As/Ac ] *100 Where Ac, As represents the control absorbance and the I. pseudacorus extract absorbance, respectively. The graph was plotted and the inhibitory concentration 50 (IC50) value was calculated. DPPH and enzyme inhibitory assays were carried out in triplicates, and the values were expressed as mean ± standard deviation. For the determination of the in vitro antioxidant, tyrosinase, lipase, and α-glucosidase inhibition potential, the (IC50) was estimated from the graph plots of the dose–response curves at each sample concentration by GraphPad Prism software (San Diego, CA, USA). The IC50 was defined as the concentration of the sample required to inhibit 50% of the tested enzyme activity.

pancreatic lipase [6] = settings: cited from earlier work
[7] = compared with acarbose, ref [6]

With `COc1ccccc1-c1coc2cc(O)c(OC)c(O)c2c1=O` [5,7-Dihydroxy-2',6-dimethoxyisoflavone] as the compound, how does the “α-glucosidase IC50” value (α-glucosidase; compared to acarbose, ref [83]) read?
Its value is 0.321 ± 0.008 µg/mL.

What about the “protein glycation % inhibition” value (protein glycation) of the same compound?
Its value is 70.41%.

With `CCCCCCCCCCCCCCCCOc1nc2ccc(C)cc2c(=O)o1` [Cetilistat] as the compound, how does the IC50 (pancreatic lipase [1]) read?
Its IC50 is 18.6 µM.

With `O=c1c(-c2ccc(O)cc2)coc2cc(O)cc(O)c12` [Genistein (30), Genistein] as the compound, how does the “α-glucosidase IC50” value (α-glucosidase; compared with acarbose, ref [85]) read?
The value was 40.09 ± 0.94 µg/mL.

What about the “DPPH IC50” value [2] of the same compound?
Its value is 1.89 ± 0.16 µg/mL.

With `COc1ccc(-c2coc3cc(O)c(OC)c(O)c3c2=O)cc1` [Irisolidone (34), Irisolidone] as the compound, how does the “antioxidant activity IC50” value [3] read?
The value was 12.62 µg/mL.

With `O=c1cc(-c2ccc(O)cc2)oc2cc(O)c([C@@H]3O[C@H](CO)[C@@H](O)[C@H](O)[C@H]3O)c(O)c12` [Isovitexin (43), Isovitexin] as the compound, how does the “α-glucosidase IC50” value (α-glucosidase; [7]) read?
The value was 6.7 µg/mL.

For `O=c1c(O)c(-c2ccc(O)c(O)c2)oc2cc(O)cc(O)c12` [Quercetin (38), Quercetin], which rat fat absorption (rats) is on record?
Its rat fat absorption is “remarkable decrease in rat fat absorption”.

For `COc1c(O)cc2occ(-c3ccc(O)cc3)c(=O)c2c1O` [Tectorigenin (31), Tectorigenin], which “intracellular free radical scavenging and lipid peroxidation” value [4] is on record?
Its value is “scavenged intracellular free radicals and reduced lipid peroxidation”.

Which results are given for `Cc1c(C)c2c(c(C)c1O)CCC(C)(C(=O)O)O2` (stereo not drawn) [Trolox, reference compound]?
DPPH IC50 [5]: 14.59 µg/mL; free radical scavenging activity IC50 [3]: 17.3 µg/mL

With `O=c1cc(-c2ccc(O)cc2)oc2c([C@@H]3O[C@H](CO)[C@@H](O)[C@H](O)[C@H]3O)c(O)cc(O)c12` [Vitexin (42), Vitexin] as the compound, how does the “free radical scavenging activity IC50” value [3] read?
The value was 31.4 µg/mL.

And the “α-glucosidase IC50” value (α-glucosidase; [7])?
Its value is 4.1 µg/mL.

Which “antioxidant activity IC50” value [3] does the source give for `CCCOC(=O)c1cc(O)c(O)c(O)c1` [propyl gallate, reference compound] here?
The value was 6.72 µg/mL.

Which “protein glycation % inhibition” value (protein glycation) does the source give for `C[C@@H]1O[C@@H](OC[C@H]2O[C@@H](Oc3c(-c4ccc(O)c(O)c4)oc4cc(O)cc(O)c4c3=O)[C@H](O)[C@@H](O)[C@@H]2O)[C@H](O)[C@H](O)[C@H]1O` [rutin, reference compound] here?
Its value is 82.50%.

Which “pancreatic lipase IC50” value (pancreatic lipase [6]; compared to orlistat, ref [90]) does the source give for “Kaempferol-O-deoxyhexosyl hexoside (Kaempferol-O-rutinoside) [Compound 21]” here?
The value was 1.7 ± 0.30 µg/mL.

What does the source list for Schaftoside [Schaftoside (18)]?
pancreatic lipase % inhibition (pancreatic lipase [6]; at a concentration of 250 μg/mL, ref [88]): 95.5%; pancreatic lipase IC50 (pancreatic lipase [6]; compared with orlistat, ref [88]): 130 µg/mL
